US20050119180A1, “Use of angiotensin 1-7 for enhancing cardiac function” (priority 2002, published 2005)

Tests used:
[1] = test system: male Sprague-Dawley rats with myocardial infarction (left coronary artery ligation); experiment: General characteristics and histology after eight weeks of treatment in rat coronary artery ligation (MI) model; assay type: in vivo
Method: (§1) The Animal Research Committee of the University of Groningen approved this study. Left coronary artery ligations were performed in 39 male Sprague-Dawley rats weighing 250 to 300 g (Harlan; Zeist, the Netherlands).^14 Perioperative mortality was 49%. Two weeks after induction of MI, rats were randomly allocated to intravenous infusion of either Ang-(1-7) (24 μg/kg per hour; n=10) or saline (n=10) by osmotic minipumps (Alzet 2004). Sham-operated controls (n=10) received saline. After eight weeks of treatment, hemodynamic studies were performed under isoflurane anesthesia with a microtip pressure transducer,^15 coronary flow was measured in a Langendorff setup,^14 endothelial function was tested in isolated aortic rings,^14 and plasma Ang-(1-7) levels were measured by radioimmunoassay.^16
Midventricular slices were processed for histochemical analysis. Infarct size was determined on picrosirius red/fast green-stained sections and was expressed as the percentage of scar length of total left ventricular circumference.^14 Rats with infarcts smaller than 20% were excluded (n=3 for Ang-(1-7) and n=1 for saline-treated rats). Capillary density was determined on sections stained with biotin-labeled Griffonia siinplicifolia lectin I (GSL-I) and hematoxylin and was expressed as the number of capillaries per mm^2. Myocyte cross-sectional area was measured on hematoxylin/eosin-stained sections.
Data are presented as mean±SEM. Statistical analysis between the groups was performed by one-way ANOVA followed by Bonferroni's t test. Differences in dose-response curves were tested by ANOVA for repeated measures with Greenhouse-Geisser correction for asphericity. Differences were considered significant at P<0.05.

[2] = Plasma Ang-(1-7) levels by radioimmunoassay at end of intravenous infusion; assay type: in vivo, rat; conditions: MI rats, iv infusion 24 μg/kg per hour
Method: as §1

[3] = test system: male Sprague-Dawley rats with myocardial infarction (left coronary artery ligation); experiment: In vivo hemodynamic studies under isoflurane anesthesia with microtip pressure transducer in MI rats; design: species or system rat
Method: as §1
(§2) After eight weeks of treatment, cardiac function was measured in vivo in anesthetized rats. […] Coronary flow was measured ex vivo in a Langendorff setup. […] Coronary endothelial function and maximal coronary flow were tested by a two-minute infusion of 3×10^−8 mol/L bradykinin and 10^−5 mol/L adenosine, respectively.

[4] = test system: hearts of infarcted rats (Langendorff setup); experiment: Ex vivo coronary flow in a Langendorff setup, hearts of treated MI rats; design: species or system rat
Method: as §1, §2

[5] = test system: isolated aortic rings of infarcted rats; experiment: Endothelium-dependent relaxation in isolated aortic rings of treated MI rats; assay type: in vivo, rat; conditions: aortic rings of MI rats after eight weeks of Ang-(1-7); P<0.05 versus MI control
Method: as §1
Endothelial dysfunction is a key feature in heart failure.^14 To examine the effects of Ang-(1-7) treatment on this aspect of cardiac failure, we investigated endothelium-dependent relaxation in isolated aortic rings. Phenylephrine elicited similar contractile responses in all three groups (data not shown). […] The relaxation in response to the endothelium independent vasodilator NaNO2 (10^−2 mol/L) was equal in the three groups (data not shown).

[6] = Ang-(1-7) 24 μg/kg per hour iv, eight weeks, mean ± SEM

CC[C@H](C)[C@H](NC(=O)[C@H](Cc1ccc(O)cc1)NC(=O)[C@@H](NC(=O)[C@H](CCCNC(=N)N)NC(=O)[C@@H](N)CC(=O)O)C(C)C)C(=O)N[C@@H](Cc1c[nH]cn1)C(=O)N1CCC[C@H]1C(=O)O [Ang-(1-7), angiotensin-(1-7)]
capillary density ([1]; Ang-(1-7) 24 μg/kg per hour iv, eight weeks, GSL-I lectin stain, mean ± SEM): 2578 ± 176 N/mm^2 | myocyte cross-sectional area ([1]; Ang-(1-7) 24 μg/kg per hour iv, eight weeks, hematoxylin/eosin-stained sections, mean ± SEM): 409 ± 21 | LVW/BW (left ventricular weight body weight ratio) [1, 6]: 3.42 ± 0.10 mg/g | infarct size (percentage of scar length of total left ventricular circumference) [1, 6]: 29.6 ± 3.3% | myocyte cross-sectional area increase after infarction, in words ([1]; eight weeks of Ang-(1-7)): attenuated to a nonsignificant level | capillary density versus saline-treated MI group, in words ([1]; eight weeks of treatment): did not differ | infarct size versus saline-treated MI group, in words ([1]; eight weeks of treatment): did not differ | [Ang-(1-7)] plasma concentration of angiotensin-(1-7) ([2]; end of eight weeks of treatment, mean ± SEM): 917.8 ± 194.1 pmol/L | increase of plasma levels of the peptide compared with MI controls ([2]; end of treatment): 40 fold | level at time molar at 1344 h ([2]; male, Sprague-Dawley, rat, plasma, 24 ug/kg per hour, end of eight weeks of treatment, mean ± SEM, read-out: [Ang-(1-7)] plasma concentration of angiotensin-(1-7)): 0.918 ± 0.194 nM | mean arterial pressure, in words ([3]; MI rats infused with Ang-(1-7), eight weeks): an increase in mean arterial pressure was found | reduction in left ventricular end-diastolic pressure ([3]; MI rats, eight weeks of Ang-(1-7) treatment): 40% | cardiac function (hemodynamic parameters LVP, LVEDP, MAP, +dP/dt, −dP/dt) compared with sham, in words ([3]; anesthetized MI rats after eight weeks of treatment): none of these parameters were significantly deteriorated, except the systolic dP/dt | baseline coronary flow compared with sham-operated hearts, in words ([4]; Langendorff, MI rats after eight weeks of Ang-(1-7)): almost completely preserved | maximal coronary flow after adenosine infusion compared with sham, in words ([4]; Langendorff, adenosine 10^−5 mol/L, MI rats after eight weeks of Ang-(1-7)): the difference did not reach statistical significance | bradykinin-dependent coronary flow compared with sham, in words ([4]; Langendorff, bradykinin 3×10^−8 mol/L, MI rats after eight weeks of Ang-(1-7)): not significantly impaired | Ex vivo coronary flow, baseline ([4]; hearts of MI rats after eight weeks of Ang-(1-7) 24 μg/kg per hour iv, baseline): 8.2 ± 0.6 ml/min per g ventricular weight | Ex vivo coronary flow, adenosine 10^−5 M ([4]; hearts of MI rats after eight weeks of Ang-(1-7), two-minute infusion of adenosine 10^−5 M (maximal coronary flow)): 12.3 ± 0.8 ml/min per g ventricular weight | Ex vivo coronary flow, bradykinin 3 × 10^−8 M ([4]; hearts of MI rats after eight weeks of Ang-(1-7), two-minute infusion of bradykinin 3 × 10^−8 M (coronary endothelial function)): 11.1 ± 0.7 ml/min per g ventricular weight | metacholine-induced relaxation of phenylephrine pre-contracted aortic rings, in words [5]: identical to sham rats
